{"source": "patent EP4772560A1", "about": "“POLYESTER RESIN COMPRISING REGENERATED BIS(2-HYDROXYETHYL)TEREPHTHALATE, AND ARTICLE COMPRISING POLYESTER RESIN” (SK Chemicals Co., Ltd., priority 2023, dated 2025)", "assay": "Thermal property drop index (TDI) calculated from HPLC peak area fractions of recycled BHET", "assay_type": "physicochemical", "conditions": "thermal property drop index = [DEG-ester-1] + [DEG-ester-2] × 2 + exp[HA-ester], from HPLC peak area fractions (%)", "protocol": "About 0.01 g of recycled bis(2-hydroxyethyl) terephthalate was diluted in about 20 ml of methanol, which was analyzed by high-performance liquid chromatography (HPLC) (model: Waters e2695, column: C18 (4.6 × 250 mm), 5 µm, UV detector: 242 nm, injection volume: 10 µl, eluent (gradient) A: H2O + H3PO4, B: acetonitrile) Thereafter, the peak area fractions (%) of the following components among the total peak area of HPLC were obtained. • MHET: monohydroxyethyl terephthalate • BHET: bis(2-hydroxyethyl) terephthalate, • DEG-ester-1: 2-hydroxyethyl[2-(2-hydroxyethoxy)ethyl] terephthalate • DEG-ester-2: bis[2-(2-hydroxyethoxy)ethyl]benzene-1,4-dicarboxylate • HA-ester: 2-hydroxyethyl(2-acetoxyethyl) terephthalate • Dimer: BHET dimer • Trimer: BHET trimer\nRecycled bis(2-hydroxyethyl) terephthalate was subjected to HPLC analysis in the same manner as in section (1) above. The thermal property drop index (TDI) defined by the following equation was then calculated. TDI = [DEG−ester−1] + [DEG−ester−2] × 2 + exp^(∧) [HA−ester] [formula]\nHere, DEG-ester-1 is the peak area fraction (%) of 2-hydroxyethyl[2-(2-hydroxyethoxy)ethyl] terephthalate, DEG-ester-2 is the peak area fraction (%) of bis[2-(2-hydroxyethoxy)ethyl]benzene-1,4-dicarboxylate, and HA-ester is the peak area fraction (%) of 2-hydroxyethyl(2-acetoxyethyl) terephthalate. It was calculated by taking only the numerical values excluding the units of these parameters.", "data": [{"smiles": "O=C(OCCO)c1ccc(C(=O)OCCO)cc1", "note": "[r-BHET B2, bis(2-hydroxyethyl) terephthalate, reference compound]", "values": [{"measurement": "TDI", "setting": "listed as B2", "result": 6.87}]}, {"smiles": "O=C(OCCO)c1ccc(C(=O)OCCO)cc1", "note": "[r-BHET B1, bis(2-hydroxyethyl) terephthalate, reference compound]", "values": [{"measurement": "TDI", "setting": "listed as B1", "result": 9.23}]}, {"smiles": "O=C(OCCO)c1ccc(C(=O)OCCO)cc1", "note": "[r-BHET A6, bis(2-hydroxyethyl) terephthalate]", "values": [{"measurement": "TDI", "setting": "listed as A6", "result": 1.86}]}, {"smiles": "O=C(OCCO)c1ccc(C(=O)OCCO)cc1", "note": "[r-BHET A7, bis(2-hydroxyethyl) terephthalate]", "values": [{"measurement": "TDI", "setting": "listed as A7", "result": 1.71}]}, {"smiles": "O=C(OCCO)c1ccc(C(=O)OCCO)cc1", "note": "[r-BHET A3, bis(2-hydroxyethyl) terephthalate]", "values": [{"measurement": "TDI", "setting": "listed as A3", "result": 1.74}]}, {"smiles": "O=C(OCCO)c1ccc(C(=O)OCCO)cc1", "note": "[r-BHET A5, bis(2-hydroxyethyl) terephthalate]", "values": [{"measurement": "TDI", "setting": "listed as A5", "result": 2.55}]}, {"smiles": "O=C(OCCO)c1ccc(C(=O)OCCO)cc1", "note": "[r-BHET A2, bis(2-hydroxyethyl) terephthalate]", "values": [{"measurement": "TDI", "setting": "listed as A2", "result": 1.59}]}, {"smiles": "O=C(OCCO)c1ccc(C(=O)OCCO)cc1", "note": "[r-BHET A4, bis(2-hydroxyethyl) terephthalate]", "values": [{"measurement": "TDI", "setting": "listed as A4", "result": 1.86}]}, {"smiles": "O=C(OCCO)c1ccc(C(=O)OCCO)cc1", "note": "[r-BHET A1, bis(2-hydroxyethyl) terephthalate]", "values": [{"measurement": "TDI", "setting": "listed as A1", "result": 1.71}]}]}
